Data reported in ChEMBL document CHEMBL1156506, “Changes to the HIV long terminal repeat and to HIV integrase differentially impact HIV integrase assembly, activity, and the binding of strand transfer inhibitors” (J Biol Chem, 2007).

Tests used:
[1] = system: Human immunodeficiency virus type 1 integrase (Human immunodeficiency virus 1), Q7ZJM1 [Q148R]; experiment: Inhibition of HIV recombinant integrase Q148R mutant assessed as strand transfer activity using U5 TTCA LTR by scintillation proximity assay relative to wild type LTR; parameters: scale not given: the % may be the effect or the level left; settings: tested as the 3H-labelled form
[2] = system: Human immunodeficiency virus; experiment: Binding affinity to HIV wild type integrase using U5 GGCA LTR relative to wild type LTR; settings: tested as the 3H-labelled form
[3] = system: Human immunodeficiency virus type 1 integrase (Human immunodeficiency virus 1), Q7ZJM1 [N155H]; experiment: Binding affinity to HIV recombinant integrase N155H mutant using U5 GTCA LTR relative to wild type LTR; settings: tested as the 3H-labelled form
[4] = system: Human immunodeficiency virus; experiment: Inhibition of HIV wild type integrase assessed as specific strand transfer activity using U5 GTAA LTR by scintillation proximity assay relative to wild type LTR; parameters: scale not given: the % may be the effect or the level left; settings: tested as the 3H-labelled form
[5] = system: Human immunodeficiency virus type 1 integrase (Human immunodeficiency virus 1), Q7ZJM1 [N155H]; experiment: Inhibition of HIV recombinant integrase N155H mutant assessed as strand transfer activity using U5 GdCA LTR by scintillation proximity assay relative to wild type LTR; parameters: scale not given: the % may be the effect or the level left; settings: tested as the 3H-labelled form
[6] = system: Human immunodeficiency virus; experiment: Binding affinity to HIV wild type integrase using U5 GTC LTR relative to wild type LTR; settings: tested as the 3H-labelled form
[7] = system: Human immunodeficiency virus; experiment: (§1) Binding affinity to HIV wild type integrase using U5 GTAA LTR relative to wild type LTR; settings: tested as the 3H-labelled form
[8] = system: Human immunodeficiency virus type 1 integrase (Human immunodeficiency virus 1), Q7ZJM1 [N155H]; experiment: Inhibition of HIV recombinant integrase N155H mutant assessed as specific strand transfer activity using U5 GdCA LTR by scintillation proximity assay relative to wild type LTR; parameters: scale not given: the % may be the effect or the level left; settings: tested as the 3H-labelled form
[9] = system: Human immunodeficiency virus type 1 integrase (Human immunodeficiency virus 1), Q7ZJM1 [N155H]; experiment: Inhibition of HIV recombinant integrase N155H mutant assessed as specific strand transfer activity using U5 dTCA LTR by scintillation proximity assay relative to wild type LTR; parameters: scale not given: the % may be the effect or the level left; settings: tested as the 3H-labelled form
[10] = system: Human immunodeficiency virus; experiment: Inhibition of HIV wild type integrase assessed as strand transfer activity using U5 GACA LTR by scintillation proximity assay relative to wild type LTR; parameters: scale not given: the % may be the effect or the level left; settings: tested as the 3H-labelled form
[11] = system: Human immunodeficiency virus; experiment: Binding affinity to HIV wild type integrase using U5 GACA LTR relative to wild type LTR; settings: tested as the 3H-labelled form
[12] = system: Human immunodeficiency virus; experiment: Binding affinity to HIV wild type integrase using U5 ATCA LTR relative to wild type LTR; settings: tested as the 3H-labelled form
[13] = system: Human immunodeficiency virus; experiment: Inhibition of HIV wild type integrase assessed as strand transfer activity U5 GTCA/CC LTR by scintillation proximity assay relative to wild type LTR; parameters: scale not given: the % may be the effect or the level left; settings: tested as the 3H-labelled form
[14] = system: Human immunodeficiency virus; experiment: Inhibition of HIV wild type integrase assessed as specific strand transfer activity using U5 ApTCA LTR by scintillation proximity assay relative to wild type LTR; parameters: scale not given: the % may be the effect or the level left; settings: tested as the 3H-labelled form
[15] = system: Human immunodeficiency virus type 1 integrase (Human immunodeficiency virus 1), Q7ZJM1 [N155H]; experiment: Binding affinity to HIV recombinant integrase N155H mutant using U5 GddA LTR relative to wild type LTR; settings: tested as the 3H-labelled form
[16] = system: Human immunodeficiency virus; experiment: Inhibition of HIV wild type integrase assessed as strand transfer activity using U5 GTCA/CG LTR by scintillation proximity assay relative to wild type LTR; parameters: scale not given: the % may be the effect or the level left; settings: tested as the 3H-labelled form
[17] = system: Human immunodeficiency virus type 1 integrase (Human immunodeficiency virus 1), Q7ZJM1 [Q148R]; experiment: Inhibition of HIV recombinant integrase Q148R mutant assessed as strand transfer activity using U5 GdCA LTR by scintillation proximity assay relative to wild type LTR; parameters: scale not given: the % may be the effect or the level left; settings: tested as the 3H-labelled form
[18] = system: Human immunodeficiency virus; experiment: Binding affinity to HIV wild type integrase using U5 GdCA LTR relative to wild type LTR; settings: tested as the 3H-labelled form
[19] = system: Human immunodeficiency virus type 1 integrase (Human immunodeficiency virus 1), Q7ZJM1 [N155H]; experiment: Inhibition of HIV recombinant integrase N155H mutant assessed as strand transfer activity using U5 GddA LTR by scintillation proximity assay relative to wild type LTR; parameters: scale not given: the % may be the effect or the level left; settings: tested as the 3H-labelled form
[20] = system: Human immunodeficiency virus type 1 integrase (Human immunodeficiency virus 1), Q7ZJM1 [Q148R]; experiment: Inhibition of HIV recombinant integrase Q148R mutant assessed as strand transfer activity using U5 INTCA LTR by scintillation proximity assay relative to wild type LTR; parameters: scale not given: the % may be the effect or the level left; settings: tested as the 3H-labelled form
[21] = system: Human immunodeficiency virus; experiment: Binding affinity to HIV wild type integrase using U5 GTTA LTR relative to wild type LTR; settings: tested as the 3H-labelled form
[22] = system: Human immunodeficiency virus; experiment: Binding affinity to HIV wild type integrase using U5 GTCA/CG LTR relative to wild type LTR; settings: tested as the 3H-labelled form
[23] = system: Human immunodeficiency virus; experiment: Inhibition of HIV wild type integrase assessed as strand transfer activity using U5 GTCC LTR by scintillation proximity assay relative to wild type LTR; parameters: scale not given: the % may be the effect or the level left; settings: tested as the 3H-labelled form
[24] = system: Human immunodeficiency virus type 1 integrase (Human immunodeficiency virus 1), Q7ZJM1 [Q148R]; experiment: Inhibition of U5 GTC LTR HIV recombinant integrase Q148R mutant assessed as specific strand transfer activity using by scintillation proximity assay relative to wild type LTR; parameters: scale not given: the % may be the effect or the level left; settings: tested as the 3H-labelled form
[25] = system: Human immunodeficiency virus; experiment: Binding affinity to HIV wild type integrase using U5 GTdA LTR relative to wild type LTR; settings: tested as the 3H-labelled form
[26] = system: Human immunodeficiency virus; experiment: Inhibition of HIV wild type integrase assessed as specific strand transfer activity using U5 GTTA LTR by scintillation proximity assay relative to wild type LTR; parameters: scale not given: the % may be the effect or the level left; settings: tested as the 3H-labelled form
[27] = system: Human immunodeficiency virus; experiment: Inhibition of HIV wild type integrase assessed as strand transfer activity using U5 GdCA LTR by scintillation proximity assay relative to wild type LTR; parameters: scale not given: the % may be the effect or the level left; settings: tested as the 3H-labelled form
[28] = system: Human immunodeficiency virus; experiment: Inhibition of HIV wild type integrase assessed as strand transfer activity using U5 GGCA LTR by scintillation proximity assay relative to wild type LTR; parameters: scale not given: the % may be the effect or the level left; settings: tested as the 3H-labelled form
[29] = Inhibition of HIV wild type integrase strand transfer activity; parameters: species or system Human immunodeficiency virus
[30] = system: Human immunodeficiency virus; experiment: Inhibition of HIV wild type integrase assessed as strand transfer activity using U5 GTAA LTR by scintillation proximity assay relative to wild type LTR; parameters: scale not given: the % may be the effect or the level left; settings: tested as the 3H-labelled form
[31] = system: Human immunodeficiency virus; experiment: Inhibition of HIV wild type integrase assessed as strand transfer activity using U5 GTAC LTR by scintillation proximity assay relative to wild type LTR; parameters: scale not given: the % may be the effect or the level left; settings: tested as the 3H-labelled form
[32] = system: Human immunodeficiency virus; experiment: Inhibition of HIV wild type integrase assessed as specific strand transfer activity using U5 GTGA LTR by scintillation proximity assay relative to wild type LTR; parameters: scale not given: the % may be the effect or the level left; settings: tested as the 3H-labelled form
[33] = system: Human immunodeficiency virus; experiment: Inhibition of HIV wild type integrase assessed as specific strand transfer activity using U5 dTCA LTR by scintillation proximity assay relative to wild type LTR; parameters: scale not given: the % may be the effect or the level left; settings: tested as the 3H-labelled form
[34] = system: Human immunodeficiency virus type 1 integrase (Human immunodeficiency virus 1), Q7ZJM1 [N155H]; experiment: Inhibition of HIV recombinant integrase N155H mutant assessed as strand transfer activity using U5 GTCA LTR by scintillation proximity assay relative to wild type LTR; parameters: scale not given: the % may be the effect or the level left; settings: tested as the 3H-labelled form
[35] = system: Human immunodeficiency virus type 1 integrase (Human immunodeficiency virus 1), Q7ZJM1 [Q148R]; experiment: Inhibition of U5 INTCA LTR HIV recombinant integrase Q148R mutant assessed as specific strand transfer activity using by scintillation proximity assay relative to wild type LTR; parameters: scale not given: the % may be the effect or the level left; settings: tested as the 3H-labelled form
[36] = system: Human immunodeficiency virus type 1 integrase (Human immunodeficiency virus 1), Q7ZJM1 [Q148R]; experiment: Inhibition of HIV recombinant integrase Q148R mutant assessed as strand transfer activity using U5 GTC LTR by scintillation proximity assay relative to wild type LTR; parameters: scale not given: the % may be the effect or the level left; settings: tested as the 3H-labelled form
[37] = system: Human immunodeficiency virus; experiment: Inhibition of HIV wild type integrase assessed as strand transfer activity using U5 GInCA LTR by scintillation proximity assay relative to wild type LTR; parameters: scale not given: the % may be the effect or the level left; settings: tested as the 3H-labelled form
[38] = system: Human immunodeficiency virus type 1 integrase (Human immunodeficiency virus 1), Q7ZJM1 [N155H]; experiment: Inhibition of HIV recombinant integrase N155H mutant assessed as specific strand transfer activity using U5 GTC LTR by scintillation proximity assay relative to wild type LTR; parameters: scale not given: the % may be the effect or the level left; settings: tested as the 3H-labelled form
[39] = system: Human immunodeficiency virus; experiment: Binding affinity to HIV wild type integrase using U5 GTAC LTR relative to wild type LTR; settings: tested as the 3H-labelled form
[40] = system: Human immunodeficiency virus type 1 integrase (Human immunodeficiency virus 1), Q7ZJM1 [Q148R]; experiment: Binding affinity to HIV recombinant integrase Q148R mutant using U5 INTCA LTR relative to wild type LTR; settings: tested as the 3H-labelled form
[41] = system: Human immunodeficiency virus type 1 integrase (Human immunodeficiency virus 1), Q7ZJM1 [Q148R]; experiment: Inhibition of U5 ApTCA LTR HIV recombinant integrase Q148R mutant assessed as specific strand transfer activity using by scintillation proximity assay relative to wild type LTR; parameters: scale not given: the % may be the effect or the level left; settings: tested as the 3H-labelled form
[42] = system: Human immunodeficiency virus; experiment: Inhibition of HIV wild type integrase assessed as specific strand transfer activity using U5 GTC LTR by scintillation proximity assay relative to wild type LTR; parameters: scale not given: the % may be the effect or the level left; settings: tested as the 3H-labelled form
[43] = system: Human immunodeficiency virus type 1 integrase (Human immunodeficiency virus 1), Q7ZJM1 [Q148R]; experiment: Inhibition of HIV recombinant integrase Q148R mutant assessed as strand transfer activity using U5 ApTCA LTR by scintillation proximity assay relative to wild type LTR; parameters: scale not given: the % may be the effect or the level left; settings: tested as the 3H-labelled form
[44] = system: Human immunodeficiency virus; experiment: as §1; settings: tested as the 3H-labelled form; remark: listed apart in the source

## Cn1c(N2CCCCS2(=O)=O)nc(C(=O)NCc2ccc(F)cc2)c(O)c1=O [BMS-707035]
[1]
  Activity: 4%
[2]
  Activity: < 25%
[3]
  Activity: 10%
[4]
  Activity: 52%
[5]
  Activity: 33%
[6]
  Activity: 59%
[7]
  Activity: 25%
[8]
  Activity: 62%
[9]
  Activity: > 40%
[10]
  Activity: 75%
[11]
  Activity: 25%
[12]
  Activity: < 25%
[13]
  Activity: < 25%
[14]
  Activity: 40%
[15]
  Activity: 9%
[16]
  Activity: < 25%
[17]
  Activity: 0.6%
[18]
  Activity: 40%
[19]
  Activity: 0.6%
[20]
  Activity: 0.6%
[21]
  Activity: 51%
[22]
  Activity: 25%
[23]
  Activity: 75%
[24]
  Activity: 83%
[25]
  Activity: 37%
[26]
  Activity: 143%
[27]
  Activity: 70%
[28]
  Activity: < 25%
[29]
  IC50: 15 nM
[30]
  Activity: 28%
[31]
  Activity: < 25%
[32]
  Activity: 136%
[33]
  Activity: 67%
[34]
  Activity: 84%
[35]
  Activity: > 12%
[36]
  Activity: 19%
[37]
  Activity: 70%
[38]
  Activity: 107%
[39]
  Activity: < 25%
[40]
  Activity: 2%
[41]
  Activity: > 8%
[42]
  Activity: 100%
[43]
  Activity: 0.4%
[44]
  Activity: 22%
